Data published in US4346087A, “Antibacterial surface active agent containing azaalkenelactam” (priority 1979, dated 1982).
In brackets after ≈: the same amount, converted by molar mass. Where two headings read alike, the source gives them in different places.

How the values were obtained:
[1] = test system: Escherichia coli NIHJ; assay: MIC against Escherichia coli NIHJ; assay type: cell-based
Excerpt: (§1) Below are described the antibacterial activities of the compounds in the compositions according to this invention.
(§2) The testing method complied with the standard method of Japan Sociaty of Chemotherapy.

[2] = test system: Staphylococcus aureus FDA 209P; assay: MIC against Staphylococcus aureus FDA 209P; assay type: cell-based
Excerpt: as §1, §2

[3] = test system: Desulfovibrio desulfuricans IFO 13699; assay: MIC against Desulfovibrio desulfuricans; assay type: cell-based
Excerpt: as §1, §2

[4] = test system: Pseudomonas aruginosa IFO 3443; assay: MIC against Pseudomonas aeruginosa; assay type: cell-based
Excerpt: (§3) Below are described the antibacterial activities of the compounds in the compositions according to this invention. The results of antibacterial activity tests on the N-alkyl-substituted azaalkenelactams and their derivatives having a carboxylate radical of Examples 1 to 70 were as shown in Tables 1 to 3.
as §2

[5] = test system: Bacillus subtilis ATCC 6633; assay: MIC against Bacillus subtilis ATCC 6633; assay type: cell-based
Excerpt: as §3, §2

[6] = test system: Pasteurella multocida; assay: MIC against Pasteurella multocida; assay type: cell-based
Excerpt: as §3, §2

[7] = test system: Staphylococcus epidermidis; assay: MIC against Staphylococcus epidermidis; assay type: cell-based
Excerpt: as §3, §2

[8] = test system: Streptococcus faecalis; assay: MIC against Streptococcus faecalis; assay type: cell-based
Excerpt: as §3, §2

[9] = test system: Salmonella typhinurium; assay: microbe, parasite or virus in culture; assay type: cell-based, Salmonella typhimurium; details: Table 3, heart infusion agar, 37° C., 24 hours, read-out: MIC
Excerpt: as §3, §2

[10] = Table 1, azaalkenelactams, heart infusion agar, 37° C., 24 hours
[11] = Table 3, heart infusion agar, 37° C., 24 hours
[12] = Staphylococcus aureus, FDA209P, Table 1, azaalkenelactams, heart infusion agar, 37° C., 24 hours, read-out: MIC
[13] = Desulfovibrio desulfuricans, IFO13699, Table 1, azaalkenelactams, heart infusion agar, 37° C., 24 hours, read-out: MIC
[14] = Bacillus subtilis, ATCC6633, 24 h
[15] = Pasteurella multocida, Table 3, heart infusion agar, 37° C., 24 hours, read-out: MIC
[16] = Staphylococcus epidermidis, Table 3, heart infusion agar, 37° C., 24 hours, read-out: MIC
[17] = Staphylococcus aureus, FDA209P, 24 h
[18] = Desulfovibrio desulfuricans, IFO13699, 24 h
[19] = Escherichia coli, Table 1, azaalkenelactams, heart infusion agar, 37° C., 24 hours, read-out: MIC

Work on `CCCCCCCCCCCCCCC(O)CNCCN1CCCN=CC(C)C1=O` (centres unmarked) [Example 49, 1-(2-hydroxyhexadecyl)aminoethyl-3-methyl-3,6,7,8-tetrahydro-1,5-diazocin-2-one] yielded an MIC [1] of 25 µg/mL (≈ 59 µM), an MIC [2, 10] of 3.12 µg/mL (≈ 7.36 µM) and an MIC [3, 10] of 3.12 µg/mL (≈ 7.36 µM). It also gave an MIC [4, 11] of 200 µg/mL (≈ 472 µM), an MIC [5, 11] of 3.12 µg/mL (≈ 7.36 µM) and an MIC [6, 11] of less than 1.56 µg/mL. The MIC [7, 11] was 1.56 µg/mL (≈ 3.68 µM) and the MIC [8, 11] was 6.25 µg/mL (≈ 14.8 µM).
In the case of `CCCCCCCCCCCCCCNCCN1CCN=CCCC1=O` [Example 53, 4-tetradecylaminoethyl-2,3,6,7-tetrahydro-1,4-diazocin-5-one], the MIC ([1]; Escherichia coli, 24 h) is reported as 6.25 µg/mL (≈ 17.1 µM), the MIC [2, 12] is reported as 1.56 µg/mL (≈ 4.27 µM) and the MIC [3, 13] is reported as 3.12 µg/mL (≈ 8.53 µM). For the same compound, the MIC ([4]; Pseudomonas, IFO3443, 24 h) was 100 µg/mL (≈ 274 µM), the MIC [5, 14] was 3.12 µg/mL (≈ 8.53 µM) and the MIC [6, 15] was less than 1.56 µg/mL. The MIC [9] was 3.12 µg/mL (≈ 8.53 µM), the MIC [7, 16] was 1.56 µg/mL (≈ 4.27 µM) and the MIC ([8]; Enterococcus faecalis, 24 h) was 6.25 µg/mL (≈ 17.1 µM).
`CCCCCCCCCCCCCCC(O)CNCCN1CCN=CCCC1=O` (centres unmarked) [Example 54, 4-(2-hydroxyhexadecyl)aminoethyl-2,3,6,7-tetrahydro-1,4-diazocin-5-one] showed an MIC ([1]; Escherichia coli, 24 h) of 6.25 µg/mL (≈ 15.3 µM), an MIC [2, 17] of 6.25 µg/mL (≈ 15.3 µM) and an MIC [3, 18] of 6.25 µg/mL (≈ 15.3 µM). It also gave an MIC ([4]; Pseudomonas, IFO3443, 24 h) of 200 µg/mL (≈ 488 µM), an MIC [5, 14] of 3.12 µg/mL (≈ 7.62 µM) and an MIC [6, 15] of less than 1.56 µg/mL. For the same compound, the MIC [9] was 3.12 µg/mL (≈ 7.62 µM), the MIC [7, 16] was 1.56 µg/mL (≈ 3.81 µM) and the MIC ([8]; Enterococcus faecalis, 24 h) was 6.25 µg/mL (≈ 15.3 µM).
In the case of `CCCCCCCCCCCCCCNCCN1CCN=CC(C)(C)C1=O` [Example 58, 4-tetradecylaminoethyl-6,6-dimethyl-3-hydro-2H-1,4-diazepin-5-one], the MIC ([1]; Escherichia coli, 24 h) is reported as 6.25 µg/mL (≈ 16.5 µM), the MIC [2, 12] is reported as 3.12 µg/mL (≈ 8.22 µM) and the MIC [3, 13] is reported as 3.12 µg/mL (≈ 8.22 µM). The MIC ([4]; Pseudomonas, IFO3443, 24 h) was 50 µg/mL (≈ 132 µM), the MIC ([5]; Bacillus subtilis, ATCC6633, Table 3, heart infusion agar, 37° C., 24 hours, read-out: MIC) was 3.12 µg/mL (≈ 8.22 µM) and the MIC ([6]; Pasteurella multocida, 24 h) was less than 1.56 µg/mL. For the same compound, the MIC [9] was 1.56 µg/mL (≈ 4.11 µM), the MIC ([7]; Staphylococcus epidermidis, 24 h) was less than 1.56 µg/mL and the MIC ([8]; Enterococcus faecalis, Table 3, heart infusion agar, 37° C., 24 hours, read-out: MIC) was 3.12 µg/mL (≈ 8.22 µM).
With `CCCCCCCCCc1ccc(OCCOCCN2CCCN=CC(C)(C)C2=O)cc1` [Example 62, 1-nonylphenylpoly(2 moles)oxyethyleneoxyethyl-3,3-dimethyl-6,7,8-trihydro-1,5-diazocin-5-one] the MIC ([1]; Escherichia coli, 24 h) was 200 µg/mL (≈ 450 µM), the MIC [2, 17] was 100 µg/mL (≈ 225 µM) and the MIC [3, 18] was 50 µg/mL (≈ 112 µM).
`CCCCCCCCOCCCN1CCN=CC(C)(C)C1=O` [Example 63, 4-octoxypropyl-6,6-dimethyl-3-hydro-2H-1,4-diazepin-5-one] gave an MIC ([1]; Escherichia coli, 24 h) of 400 µg/mL (≈ 1290 µM), an MIC [2, 17] of 100 µg/mL (≈ 322 µM) and an MIC [3, 18] of 50 µg/mL (≈ 161 µM).
`CCCCCC[C@@H](O)C/C=C\CCCCCCCC(=O)NCCN1CCN=CC(C)(C)C1=O` [Example 64, 4-ricinolamidoethyl-6,6-dimethyl-3-hydro-2H-1,4-diazepin-5-one] was tested, and the MIC ([1]; Escherichia coli, 24 h) was 400 µg/mL (≈ 863 µM), the MIC [2, 17] was 200 µg/mL (≈ 431 µM) and the MIC [3, 18] was 25 µg/mL (≈ 53.9 µM).
`CCCCCCCCCc1ccc(OCC(O)CNCCNCCNCCN2CCN=CCC(C)C2=O)cc1` (centres unmarked) [Example 69, 4-nonylphenoxy(2-hydroxy)propylaminoethylaminoethylaminoethyl-6-methyl-2,3,6,7-tetrahydro-1,4-diazocin-5-one] showed an MIC ([1]; Escherichia coli, 24 h) of 200 µg/mL (≈ 366 µM), an MIC [2, 17] of 200 µg/mL (≈ 366 µM) and an MIC [3, 18] of 50 µg/mL (≈ 91.6 µM).
In the case of `CCCCCCCCCCCCNC(=O)CCC` [Laurylbutylamide, reference compound], the MIC [1, 19] is reported as no less than 10000 µg/mL, the MIC [2, 12] is reported as no less than 10000 µg/mL and the MIC [3, 18] is reported as 400 µg/mL (≈ 1570 µM).
Work on `CCCCCCCCCCCC[N+](C)(C)CC(=O)[O-]` [Lauryldimethylbetaine, lauryldimethylbetaine, reference compound] yielded an MIC ([1]; Escherichia coli, Table 2, derivatives having a carboxylate radical, heart infusion agar, 37° C., 24 hours, read-out: MIC) of no less than 10000 µg/mL, an MIC ([2]; Staphylococcus aureus, FDA209P, Table 2, derivatives having a carboxylate radical, heart infusion agar, 37° C., 24 hours, read-out: MIC) of no less than 10000 µg/mL and an MIC ([3]; Desulfovibrio desulfuricans, IFO13699, Table 2, derivatives having a carboxylate radical, heart infusion agar, 37° C., 24 hours, read-out: MIC) of 1600 µg/mL (≈ 5890 µM).
Work on `CCCCCCCC/C=C\CCCCCCCCNCCCNC(=O)CCCCCCC/C=C\CCCCCCCC` [Oleylaminopropyl oleamide, oleylaminopropyloleamide, reference compound] yielded an MIC [1, 19] of no less than 10000 µg/mL, an MIC [2, 12] of no less than 10000 µg/mL and an MIC [3, 18] of 100 µg/mL (≈ 170 µM).
